# Assay results reported in patent US20260207570A1, “OPTIMIZED DOSING OF LERIGLITAZONE” (MINORYX THERAPEUTICS S.L., priority 2022, published 2026).
# Like-named read-outs stand apart in the source and are kept apart here.
# Assay: Phase 1 single ascending dose (SAD) pharmacokinetics in healthy volunteers
# Assay type: in vivo, human
# Details: for Vd/F: read-out: Vz/F
# Description: Study design: A phase 1, randomized, double blind, placebo-controlled, single-center clinical study in 33 male healthy volunteers (HV) (19-54 years, 63.2-95.7 Kg) was conducted with leriglitazone HCl and divided in two parts: a single ascending dose (SAD) with three dose levels (30, 90 and 270 mg) in fasted conditions, followed with two dose levels (90 and 270 mg) in fed conditions; a multiple ascending dose (MAD) with a double-blind, parallel-design with two dose levels (135 and 270 mg) for 8 days and a separate cohort of subjects in an open-label parallel design with two dose levels (135 and 270 mg) including cerebrospinal fluid (CSF) collection on day 8. In the fasted conditions a fasting period of at least 4 hours was required before obtaining plasma samples. The food effect (FE) was assessed by comparing fasted with fed conditions (dosing after a high-fat breakfast per FDA definition with a calculated caloric content of 918 kcal). In the MAD part (fed) the medication was taken before a normal breakfast. Leriglitazone HCl was supplied by ChemConnection and an oral suspension of leriglitazone (20% w/v kleptose, 2% ethanol in 100 mM phosphate buffer pH=7.8) at 6 mg/ml was used in the study.
# Blood, Urine and CSF sampling: In the SAD, blood samples were drawn at the following time points: pre-dose and 0.25, 0.5, 0.75, 1, 1.5, 2, 2.5, 3, 4, 5, 6, 8, 10, 12, 16, 24, 36, 48, 72, 96 and 120 hours post-dose. Urine was collected at pre-dose (within 12 hours prior to dosing) and over 0-6, 6-12, 12-24, 24-36, 36-48 hours post-dose collection intervals. In the MAD, blood samples were collected on day 1 at pre-dose and 0.25, 0.5, 0.75, 1, 1.5, 2, 2.5, 3, 4, 5, 6, 8, 10, 12, and 16 hours post-dose and at pre-dose and at 4 hours post-dose on day 2 to day 7, and on day 8 at pre-dose and 0.25, 0.5, 0.75, 1, 1.5, 2, 2.5, 3, 4, 5, 6, 8, 10, 12, 16, 24, 36, 48, 72, 96 and 120 hours post-dose. CSF were taken on day −1 and on day 8, at 4 hours post-dose.
# Pharmacokinetic parameter calculation: PK parameters (Cmax, Tmax, t1/2, AUC0-t, CL/F, Vz/F, AUC0-t, RAUC, RCmax) were estimated using non-compartmental analysis (NCA) (Phoenix WinNonlin® Version 6.3).
# Statistical analysis: Descriptive statistics for all relevant PK parameters: n, mean, minimum, median, maximum, geometric mean, and coefficient of variation (CV %); analysis of variance on Cmax and AUC to determine dose proportionality and food effect (FE).
smiles,measurement,setting,value
"CC(O)c1ccc(CCOc2ccc(CC3SC(=O)NC3=O)cc2)nc1 (centres unmarked) [Leriglitazone, 5-[[4-[2-[5-(1-hydroxyethyl)pyridin-2-yl]ethoxy]phenyl]methyl]-1,3-thiazolidine-2,4-dione]",Ka,"SAD 270 mg Fed, estimated",0.49 (CV: 9%) 1/h
same,CL/F,"SAD 270 mg fasted, n = 5, geometric mean (CV %)",0.731 (16.2) L/h
same,CL/F,"SAD 270 mg fed, n = 5, geometric mean (CV %)",0.733 (17.8) L/h
same,dose proportionality of AUC,"SAD 30, 90 and 270 mg",AUC increased proportionally with the dose
same,food effect on overall exposure,"SAD fed vs fasted, food lowered Cmax and prolonged Tmax",overall exposure was not affected
same,leriglitazone converted to M3,from individual phase 1 plasma PK data,up to 51%
same,Vd,"male, human, plasma, oral, 30 mg, SAD 30 mg Fasted, NCA estimate, per kg body weight, read-out: Vss",0.29 L/kg
same,Vd,"male, human, plasma, oral, 30 mg, SAD 30 mg Fasted, NCA estimate, read-out: Vss",23.1 L
same,Tmax,"male, human, plasma, oral, 30 mg, SAD 30 mg fasted, n = 6, Median, read-out: Tmax",0.63 h
same,Vd/F,"male, human, plasma, oral, 30 mg, SAD 30 mg fasted, n = 6, geometric mean (CV %)",23.2 L
same,AUC,"male, human, plasma, oral, 30 mg, SAD 30 mg fasted, n = 6, geometric mean, read-out: AUC",44.2 µg·h/mL
same,Cmax,"male, human, plasma, oral, 30 mg, SAD 30 mg fasted, n = 6, plasma total, geometric mean (CV %), read-out: Cmax",1700 ng/mL
same,AUC,"male, human, plasma, oral, 30 mg, single dose 30 mg Fasted, read-out: AUC, Observed",44.2 µg·h/mL
same,Cmax,"male, human, plasma, oral, 30 mg, single dose 30 mg Fasted, read-out: Cmax, Observed",1700 ng/mL
same,Tmax,"male, human, plasma, oral, 30 mg, single dose 30 mg Fasted, read-out: Tmax, Observed",0.63 h
same,Vd,"male, human, plasma, oral, 90 mg, SAD 90 mg Fasted, NCA estimate, per kg body weight, read-out: Vss",0.31 L/kg
same,Vd,"male, human, plasma, oral, 90 mg, SAD 90 mg Fasted, NCA estimate, read-out: Vss",25.2 L
same,Vd,"male, human, plasma, oral, 90 mg, SAD 90 mg Fed, NCA estimate, per kg body weight, read-out: Vss",0.35 L/kg
same,Vd,"male, human, plasma, oral, 90 mg, SAD 90 mg Fed, NCA estimate, read-out: Vss",28.1 L
same,Tmax,"male, human, plasma, oral, 90 mg, SAD 90 mg fasted, n = 6, Median, read-out: Tmax",0.88 h
same,AUC(0-t),"male, human, plasma, oral, 90 mg, SAD 90 mg fasted, n = 6, geometric mean",117 µg·h/mL
same,Vd/F,"male, human, plasma, oral, 90 mg, SAD 90 mg fasted, n = 6, geometric mean (CV %)",26.1 L
same,AUC,"male, human, plasma, oral, 90 mg, SAD 90 mg fasted, n = 6, geometric mean, read-out: AUC",121 µg·h/mL
same,Cmax,"male, human, plasma, oral, 90 mg, SAD 90 mg fasted, n = 6, plasma total, geometric mean (CV %), read-out: Cmax",4430 ng/mL
same,Tmax,"male, human, plasma, oral, 90 mg, SAD 90 mg fed, n = 3, Median, read-out: Tmax",3 h
same,AUC(0-t),"male, human, plasma, oral, 90 mg, SAD 90 mg fed, n = 3, geometric mean",116 µg·h/mL
same,Vd/F,"male, human, plasma, oral, 90 mg, SAD 90 mg fed, n = 3, geometric mean (CV %)",27.8 L
same,AUC,"male, human, plasma, oral, 90 mg, SAD 90 mg fed, n = 3, geometric mean, read-out: AUC",121 µg·h/mL
same,Cmax,"male, human, plasma, oral, 90 mg, SAD 90 mg fed, n = 3, plasma total, geometric mean (CV %), read-out: Cmax",3170 ng/mL
same,AUC,"male, human, plasma, oral, 90 mg, single dose 90 mg Fasted, read-out: AUC, Observed",121 µg·h/mL
same,Cmax,"male, human, plasma, oral, 90 mg, single dose 90 mg Fasted, read-out: Cmax, Observed",4430 ng/mL
same,Tmax,"male, human, plasma, oral, 90 mg, single dose 90 mg Fasted, read-out: Tmax, Observed",0.88 h
same,AUC,"male, human, plasma, oral, 90 mg, single dose 90 mg Fed, read-out: AUC, Observed",121 µg·h/mL
same,Cmax,"male, human, plasma, oral, 90 mg, single dose 90 mg Fed, read-out: Cmax, Observed",3170 ng/mL
same,Tmax,"male, human, plasma, oral, 90 mg, single dose 90 mg Fed, read-out: Tmax, Observed",3 h
same,Vd,"male, human, plasma, oral, 270 mg, SAD 270 mg Fasted, NCA estimate, per kg body weight, read-out: Vss",0.27 L/kg
same,Vd,"male, human, plasma, oral, 270 mg, SAD 270 mg Fasted, NCA estimate, read-out: Vss",22.7 L
same,Vd,"male, human, plasma, oral, 270 mg, SAD 270 mg Fed, NCA estimate, per kg body weight, read-out: Vss",0.3 L/kg
same,Vd,"male, human, plasma, oral, 270 mg, SAD 270 mg Fed, NCA estimate, read-out: Vss",24.4 L
same,Tmax,"male, human, plasma, oral, 270 mg, SAD 270 mg fasted, n = 5, Median, read-out: Tmax",1.5 h
same,Vd/F,"male, human, plasma, oral, 270 mg, SAD 270 mg fasted, n = 5, geometric mean (CV %)",24 L
same,Tmax,"male, human, plasma, oral, 270 mg, SAD 270 mg fed, n = 5, Median, read-out: Tmax",4 h
same,AUC(0-t),"male, human, plasma, oral, 270 mg, SAD 270 mg fed, n = 5, geometric mean",357 µg·h/mL
same,Vd/F,"male, human, plasma, oral, 270 mg, SAD 270 mg fed, n = 5, geometric mean (CV %)",24.9 L
same,AUC,"male, human, plasma, oral, 270 mg, SAD 270 mg fed, n = 5, geometric mean, read-out: AUC",368 µg·h/mL
same,Cmax,"male, human, plasma, oral, 270 mg, SAD 270 mg fed, n = 5, plasma total, geometric mean (CV %), read-out: Cmax",11500 ng/mL
same,Vd,"male, human, plasma, oral, 270 mg, SAD Fasted doses 30, 90, 270 mg, NCA estimate, read-out: Vss, Mean",0.29 L/kg
same,Vd,"male, human, plasma, oral, 270 mg, SAD Fed doses 90, 270 mg, NCA estimate, read-out: Vss, Mean",0.32 L/kg
same,Tmax,"male, human, plasma, oral, 270 mg, SAD fasting conditions, 30, 90 and 270 mg, read-out: Tmax, range",0.25 to 2.5 h
same,Tmax,"male, human, plasma, oral, 270 mg, SAD fed conditions, 90 and 270 mg, read-out: Tmax",3 to 6 h
same,AUC,"male, human, plasma, oral, 270 mg, single dose 270 mg Fasted, read-out: AUC, Observed",369 µg·h/mL
same,Cmax,"male, human, plasma, oral, 270 mg, single dose 270 mg Fasted, read-out: Cmax, Observed",13400 ng/mL
same,Tmax,"male, human, plasma, oral, 270 mg, single dose 270 mg Fasted, read-out: Tmax, Observed",1.5 h
same,AUC,"male, human, plasma, oral, 270 mg, single dose 270 mg Fed, read-out: AUC, Observed",368 µg·h/mL
same,Cmax,"male, human, plasma, oral, 270 mg, single dose 270 mg Fed, read-out: Cmax, Observed",11500 ng/mL
same,Tmax,"male, human, plasma, oral, 270 mg, single dose 270 mg Fed, read-out: Tmax, Observed",4 h
same,Vd,"male, human, plasma, oral, PBPK model input, estimated from phase 1 SAD data, read-out: Vss",0.29 L/kg
same,half-life,"male, human, plasma, oral, SAD, read-out: Half-lives",23 to 24 h
same,CL renal,"male, human, urine, oral, PBPK model input",0.55 mL/min
